Laboratory results as given in patent US20100168079A1 (priority 2008, published 2010).

Target: T1, human S1P1 receptors (Homo sapiens, UniProt P21453)
T1 construct: myc (N); expressed in transfected cells; host or cells: HeLa (human cervix carcinoma, ATCC CCL2), HeLa-S1P1/Gα16 cell clone 1
Test: Human S1P1 Receptor Calcium FLIPR Antagonist Assay (HeLa Gα16 S1P1)
Type: cell-based
Details: relative antagonism of Ca2+ signal evoked by probing agonist GNF-AC-1 at EC80; HeLa-S1P1/Gα16 cells
Protocol: Human S1P1 Receptor Calcium FLIPR Antagonist Assay
The cells are plated in 384 well black plates (10′000 cells per well). […] After washing, the cells are transferred to the FLIPR. The test compounds are added at different concentrations […]) in HBSS in the presence of 0.1% BSA and changes in fluorescence are recorded (indication of agonism). The probing agonist is added 20-30 minutes afterwards to the wells at a concentration giving 80% of the maximal activity (EC80). After each addition, time points are collected as follows: 20 time points (2 seconds) before the addition of the agonist (Fmin) and 60 time points (1 or 2 seconds) after the addition of the probing agonist. This allows the determination of the maximal fluorescence (Fmax). The ratio (Fmax-Fmin)/Fmin is plotted against the log of the concentration of the test compounds and the IC50 (relative antagonism) is calculated using the XLfit-4 software. […] A concentration-response curve of the probing agonist is determined on each plate in parallel.

T1 sequence (P21453 whole entry): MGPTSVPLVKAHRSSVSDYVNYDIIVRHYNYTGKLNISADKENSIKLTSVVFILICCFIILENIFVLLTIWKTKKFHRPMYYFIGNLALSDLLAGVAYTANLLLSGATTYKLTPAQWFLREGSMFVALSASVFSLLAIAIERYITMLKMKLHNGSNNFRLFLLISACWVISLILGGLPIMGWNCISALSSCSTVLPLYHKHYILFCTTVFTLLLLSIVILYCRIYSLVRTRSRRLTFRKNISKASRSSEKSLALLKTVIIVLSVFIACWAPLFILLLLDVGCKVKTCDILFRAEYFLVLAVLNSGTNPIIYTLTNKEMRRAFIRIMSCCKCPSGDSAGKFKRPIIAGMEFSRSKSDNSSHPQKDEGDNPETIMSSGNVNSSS

`CCC(Nc1ccc(F)c(-c2ccc(C(=O)N(C)[C@@H](C)C(=O)O)c(C)c2)c1)c1ccc(Cl)c(C)c1` (stereo partly drawn) [Example 86, (S)-2-({5′-[1-(4-Chloro-3-methyl-phenyl)-propylamino]-2′-fluoro-3-methyl-biphenyl-4-carbonyl}-methyl-amino)-propionic acid] showed an IC50 of 6 nM.
For `Cc1cc(C(C)Nc2ccc(F)c(-c3ccc(C(=O)N(C)[C@@H](C)C(=O)O)c(Cl)c3)c2)ccc1Cl` (stereo partly drawn) [Example 87, (S)-2-({3-Chloro-5′-[1-(4-chloro-3-methyl-phenyl)-ethylamino]-2′-fluoro-biphenyl-4-carbonyl}-methyl-amino)-propionic acid], the IC50 was 4 nM.
With `CCC(Nc1ccc(F)c(-c2ccc(C(=O)N(C)[C@@H](C)C(=O)O)c(Cl)c2)c1)c1ccc(Cl)c(C)c1` (stereo partly shown) [Example 88] the IC50 was 5 nM.
With `CCC(Nc1ccc(F)c(-c2ccc(C(=O)N(C)[C@@H](C)C(=O)O)c(C(F)(F)F)c2)c1)c1ccc(Cl)c(C)c1` (stereo partly drawn) [Example 89, (S)-2-({5′-[1-(4-Chloro-3-methyl-phenyl)-propylamino]-2′-fluoro-3-trifluoromethyl-biphenyl-4-carbonyl}-methyl-amino)-propionic acid] the IC50 was 13 nM.
Work on `Cc1cc(C(Nc2cccc(-c3cc(C)c(C(=O)N[C@@H](C)C(=O)O)c(C)c3)c2)C(C)C)ccc1Cl` (stereo partly drawn) [Example 90, (S)-2-({3′-[1-(4-Chloro-3-methyl-phenyl)-2-methyl-propylamino]-3,5-dimethyl-biphenyl-4-carbonyl}-amino)-propionic acid] yielded an IC50 of 10 nM.
Work on `Cc1cc(C(Nc2cccc(-c3ccc(C(=O)N(C)[C@@H](C)C(=O)O)c(C(F)(F)F)c3)c2)C(F)(F)F)ccc1Cl` (stereo partly drawn) [Example 91, (S)-2-({3′-[1-(4-Chloro-3-methyl-phenyl)-2,2,2-trifluoro-ethylamino]-3-trifluoromethyl-biphenyl-4-carbonyl}-methyl-amino)-propionic acid] yielded an IC50 of 4 nM.
`Cc1cc(C(Nc2cccc(-c3ccc(C(=O)N[C@@H](C)C(=O)O)c(C(F)(F)F)c3)c2)C(F)(F)F)ccc1Cl` (stereo partly drawn) [Example 92, (S)-2-({3′-[1-(4-Chloro-3-methyl-phenyl)-2,2,2-trifluoro-ethylamino]-3-trifluoromethyl-biphenyl-4-carbonyl}-amino)-propionic acid] gave an IC50 of 4 nM.
`Cc1cc(C(Nc2cccc(-c3ccc(C(=O)N(C)C4(C(=O)O)CC4)c(C(F)(F)F)c3)c2)C(F)(F)F)ccc1Cl` (stereo not shown) [Example 93, 1-({3′-[1-(4-Chloro-3-methyl-phenyl)-2,2,2-trifluoro-ethylamino]-3-trifluoromethyl-biphenyl-4-carbonyl}-methyl-amino)-cyclopropanecarboxylic acid] gave an IC50 of 4 nM.
`Cc1cc(C(Nc2cccc(-c3ccc(C(=O)N[C@@H](C)C(=O)O)c(Cl)c3)c2)C(F)(F)F)ccc1Cl` (stereo partly shown) [Example 94] showed an IC50 of 14 nM.
In the case of `Cc1cc(C(Nc2cccc(-c3ccc(C(=O)NC4(C(=O)O)CC4)c(Cl)c3)c2)C(F)(F)F)ccc1Cl` (stereo not shown) [Example 95, 1-({3-Chloro-3′-[1-(4-chloro-3-methyl-phenyl)-2,2,2-trifluoro-ethylamino]-biphenyl-4-carbonyl}-amino)-cyclopropanecarboxylic acid], the IC50 is reported as 14 nM.
`Cc1cc([C@H](Nc2cccc(-c3ccc(C(=O)N(C)[C@@H](C)C(=O)O)c(Cl)c3)c2)C(F)(F)F)ccc1Cl` [Example 96, (S)-2-({3-Chloro-3′-[(S)-1-(4-chloro-3-methyl-phenyl)-2,2,2-trifluoro-ethylamino]-biphenyl-4-carbonyl}-methyl-amino)-propionic acid] was tested, and the IC50 was 2 nM.
`Cc1cc(C(C)(C)Nc2cccc(-c3ccc(C(=O)N[C@@H](C)C(=O)O)c(Cl)c3)c2)ccc1Cl` [Example 97, (S)-2-({3-Chloro-3′-[1-(4-chloro-3-methyl-phenyl)-1-methyl-ethylamino]-biphenyl-4-carbonyl}-amino)-propionic acid] gave an IC50 of 1 nM.
In the case of `Cc1cc(C(C)(C)Nc2cccc(-c3ccc(C(=O)N(C)[C@@H](C)C(=O)O)c(Cl)c3)c2)ccc1Cl` [Example 98, (S)-2-({3-Chloro-3′-[1-(4-chloro-3-methyl-phenyl)-1-methyl-ethylamino]-biphenyl-4-carbonyl}-methyl-amino)-propionic acid], the IC50 is reported as 4 nM.
With `CC[C@@H](Nc1cccc(-c2cc(C)c(C(=O)N[C@@H](C)C(=O)O)c(C)c2)c1)c1cc(C)c(Cl)c(C)c1` [Example 101, (S)-2-({3′-[(R)-1-(4-Chloro-3,5-dimethyl-phenyl)-propylamino]-3,5-dimethyl-biphenyl-4-carbonyl}-amino)-propionic acid] the IC50 was 1 nM.
Compound `CC[C@@H](Nc1cccc(-c2cc(C)c(C(=O)NC3(C(=O)O)CC3)c(C)c2)c1)c1cc(C)c(Cl)c(C)c1` [Example 102, 1-({3-[(R)-1-(4-Chloro-3,5-dimethyl-phenyl)-propylamino]-3,5-dimethyl-biphenyl-4-carbonyl}-amino)-cyclopropanecarboxylic acid] has an IC50 of 1 nM.
`CC[C@H](c1ccc(Cl)c(C)c1)N(C)c1cccc(-c2cc(C)c(C(=O)N[C@@H](C)C(=O)O)c(C)c2)c1` [Example 104, (S)-2-[(3′-{[(R)-1-(4-Chloro-3-methyl-phenyl)-propyl]-methyl-amino}-3,5-dimethyl-biphenyl-4-carbonyl)-amino]-propionic acid] was tested, and the IC50 was 1 nM.
For `CC[C@@H](Nc1cccc(-c2cc(C)c(C(=O)N(C)[C@@H](C)C(=O)O)c(C)c2)c1)c1ccc(Cl)c(C)c1` [Example 107, (S)-2-({3′-[(R)-1-(4-Chloro-3-methyl-phenyl)-propylamino]-3,5-dimethyl-biphenyl-4-carbonyl}-methyl-amino)-propionic acid], the IC50 was 1 nM.
In the case of `CC[C@H](c1ccc(Cl)c(C)c1)N(C)c1cccc(-c2cc(C)c(C(=O)N(C)C3(C(=O)O)CC3)c(C)c2)c1` [Example 110, 1-[(3′-{[(R)-1-(4-Chloro-3-methyl-phenyl)-propyl]-methyl-amino}-3,5-dimethyl-biphenyl-4-carbonyl)-methyl-amino]-cyclopropanecarboxylic acid], the IC50 is reported as 35 nM.
With `CC[C@@H](Nc1cccc(-c2cc(C)c(C(=O)N(C)C3(C(=O)O)CC3)c(C)c2)c1)c1ccc(Cl)c(C)c1` [Example 111, 1-({3′-[(R)-1-(4-Chloro-3-methyl-phenyl)-propylamino]-3,5-dimethyl-biphenyl-4-carbonyl}-methyl-amino)-cyclopropanecarboxylic acid] the IC50 was 8 nM.
Work on `Cc1cc([C@@H](C)Nc2cccc(-c3cc(C)c(C(=O)N[C@@H](CN)C(=O)O)c(C)c3)c2)ccc1Cl` [Example 114, (S)-3-Amino-2-({3′-[(R)-1-(4-chloro-3-methyl-phenyl)-ethylamino]-3,5-dimethyl-biphenyl-4-carbonyl}-amino)-propionic acid] yielded an IC50 of 1 nM.
`CC[C@H](c1ccc(Cl)c(C)c1)N(C)c1ccc(F)c(-c2cc(C)c(C(=O)N[C@@H](C)C(=O)O)c(C)c2)c1` [Example 116, (S)-2-[(5′-{[(R)-1-(4-Chloro-3-methyl-phenyl)-propyl]-methyl-amino}-2′-fluoro-3,5-dimethyl-biphenyl-4-carbonyl)-amino]-propionic acid] showed an IC50 of 2 nM.
For `CC[C@H](c1ccc(Cl)c(C)c1)N(C)c1ccc(F)c(-c2cc(C)c(C(=O)N(C)[C@@H](C)C(=O)O)c(C)c2)c1` [Example 118, (S)-2-[(5′-{[(R)-1-(4-Chloro-3-methyl-phenyl)-propyl]-methyl-amino}-2′-fluoro-3,5-dimethyl-biphenyl-4-carbonyl)-methyl-amino]-propionic acid], the IC50 was 4 nM.
